In patent US9931367B2, “Uses of cistanche tubulosa extract and isoacteoside in protecting muscle” (SINPHAR TIAN-LI PHARMACEUTICAL CO., LTD. (HANGZHOU), priority 2016, dated 2018):

Columns and labels:
[1] = system: C2C12 cells with TNF-α induced injury; test: Protection of C2C12 cells against TNF-α induced injury (survival rate, MMP, intracellular ROS); type: cell-based, mice; settings: pre-treated 6 h, then 10 ng/mL TNF-α 4 days
Experimental: C2C12 cells were cultured in H-DMEM medium until 80% confluence was attained. Thereafter, the cells were separated into eleven groups, wherein seven groups thereof were provided with the Cistanche tubulosa extract (CIS) solution (dissolved in DMSO) to provide final concentrations of 0, 1, 5, 10, 50, 100, 500 μg/mL, respectively, and then pre-treatment was carried out for 6 hours; the other three groups were provided with branched chain amino acids (BCAA; served as a positive control) to provide final concentrations of 0.1, 1 or 10 μg/mL respectively, and then pre-treatment was carried out for 6 hours; thereafter, the mediums of the above ten groups (seven groups provided with CIS and three groups provided with BCAA) were replaced by differentiation mediums supplemented with 2% horse serum, and TNA-α was then added into those mediums to provide a final concentration of 10 ng/mL, and then co-treated with differentiation medium for 4 days; the last group served as a control group, which was not treated with the Cistanche tubulosa extract, BCAA, or TNA-α. Finally, the survival rates, MMPs and intracellular ROSs of the C2C12 cells in each group were measured. The control group served as a basis for calculating the relative survival rates, MMPs, and intracellular ROSs of the other groups to determine the effective concentration of Cistanche tubulosa extract for providing a protective effect against the TNF-α induced muscle cell injury. The results are shown in FIG. 3 and FIG. 4 (all the data are presented as average values±SEM, n=6, analyzed with a t-test, *p<0.05, **p<0.01, ***p<0.001).
According to the results of Example 1, echinacoside (Ech), verbascoside (VB) and isoacteoside (Iso) are the main ingredients of the Cistanche tubulosa extract. To investigate whether the echinacoside, verbascoside and isoacteoside have the effect of protecting muscles, the echinacoside, verbascoside and isoacteoside (all purchased from ChromaDex company, U.S.) were dissolved in DMSO to provide a echinacoside solution, a verbascoside solution and a isoacteoside solution. C2C12 cells were cultured in H-DMEM medium until 80% confluence was attained. Thereafter, the cells were separated into eighteen groups and treated as follows: • (1) Control group: cells were cultured in H-DMEM medium for 6 hours; thereafter the medium was replaced by a differentiation medium supplemented with 2% horse serum, and the cells were cultured for 4 days. • (2) TNF-α group: cells were cultured in H-DMEM medium for 6 hours; thereafter the medium was replaced by a differentiation medium supplemented with 2% horse serum, and TNF-α was then added into the medium (the final concentration was 10 ng/mL) to carry out a co-treatment for 4 days. • (3) TNF-α+echinacoside group (6 groups): the echinacoside solution was added into H-DMEM mediums to provide final concentrations of 1, 5, 10, 50, 100, or 500 μg/mL, respectively. The cells were pre-treated with the above mediums for 6 hours. Thereafter, the mediums were replaced by differentiation mediums supplemented with 2% horse serum, and TNF-α was then added into the mediums (the final concentration was 10 ng/mL) to carry out co-treatments for 4 days. • (4) TNF-α+verbascoside group (5 groups): the verbascoside solution was added into H-DMEM mediums to provide final concentration of 1, 5, 10, 50, or 100 μg/mL, respectively. The cells were pre-treated with the above mediums for 6 hours. Thereafter, the mediums were replaced by differentiation mediums supplemented with 2% horse serum, and TNF-α was then added into the mediums (the final concentration was 10 ng/mL) to carry out co-treatments for 4 days. • (5) TNF-α+isoacteoside group (5 groups): the isoacteoside solution was added into H-DMEM mediums to provide final concentrations of 1, 5, 10, 50, or 100 μg/mL, respectively. The cells were pre-treated with the above mediums for 6 hours. […]

C2C12 cells = test: Establishment of TNF-α induced muscle cell injury model (MMP, intracellular ROS); type: cell-based, mice; settings: 4 days, relative to 0 ng/mL group
Experimental: Firstly, C2C12 cells (i.e., muscle cells of mice, purchased from ATCC) were cultured in H-DMEM medium (purchased from Sigma company) until 80% confluence was attained (i.e., the mixed cell monolayer comprises 80% of area). Thereafter, the cells were separated into four groups, and the mediums of all the groups were replaced by differentiation mediums supplemented with 2% horse serum. TNF-α (purchased from Sigma company) was then added into those mediums to provide final concentrations of 0, 2, 5, 10 ng/mL respectively. After being co-treated with the differentiation medium and TNF-α for 4 days, the mitochondrial membrane potential (MMP) and intracellular reactive oxidative stress (ROS) of the C2C12 cells were measured to serve as the index for model evaluation. Accordingly, a TNF-α induced muscle cell injury model was established. Finally, the group that was not treated with TNF-α (i.e., the concentration of TNF-α was 0 ng/mL) served as a basis for calculating the relative MMPs and intracellular ROSs of the other groups. The results are shown in FIG. 1 (all the data are presented as average values±SEM, n=6, analyzed with a t-test, *p<0.05, ***p<0.001).

C[C@@H]1O[C@@H](O[C@@H]2[C@@H](O)[C@H](OCCc3ccc(O)c(O)c3)O[C@H](CO)[C@H]2OC(=O)/C=C/c2ccc(O)c(O)c2)[C@H](O)[C@H](O)[C@H]1O [verbascoside]
protection of C2C12 cells against TNF-α induced injury (survival rate, MMP, ROS) ([1]; 1 to 100 μg/mL): could not protect

TNF-α
intracellular reactive oxidative stress (ROS) (C2C12 cells; 5 ng/mL TNF-α): slightly increased
mitochondrial membrane potential (MMP) (C2C12 cells; 5 ng/mL TNF-α): significantly decreased
intracellular reactive oxidative stress (ROS) (C2C12 cells; 10 ng/mL TNF-α): significantly increased
mitochondrial membrane potential (MMP) (C2C12 cells; 10 ng/mL TNF-α): significantly decreased

C[C@@H]1O[C@@H](O[C@@H]2[C@@H](O)[C@H](OCCc3ccc(O)c(O)c3)O[C@H](COC(=O)/C=C/c3ccc(O)c(O)c3)[C@H]2O)[C@H](O)[C@H](O)[C@H]1O [isoacteoside]
decrease in the MMP induced by TNF-α ([1]; 100 μg/mL): significantly ameliorated
survival rate ([1]; 5 to 100 μg/mL): increased
intracellular ROS ([1]; 10 to 100 μg/mL): significantly decreased

echinacoside
concentration at which the protective effect (survival rate) became significant ([1]; 5 to 500 μg/mL tested): 100 µg/mL
protective effect on MMP ([1]; 5 to 500 μg/mL): did not exhibit protective effect
protective effect on ROS ([1]; 5 to 500 μg/mL): did not exhibit protective effect
protective effect (survival rate) ([1]; lower concentration within 5 to 500 μg/mL): not significant
